Paper PMC10653840, “A new class of protein sensor links spirochete pleomorphism, persistence, and chemotaxis” (mBio, 2023)

Key:
[1] = molecular target: T1, CheWS (Treponema denticola, UniProt F7IUZ1); test: isothermal titration calorimetry with purified protein; type: binding; design: gene cheW-1; full-length CheWS (CheW-CheRlike), poly-His tag
Target sequence in this assay (F7IUZ1 entry or part of it): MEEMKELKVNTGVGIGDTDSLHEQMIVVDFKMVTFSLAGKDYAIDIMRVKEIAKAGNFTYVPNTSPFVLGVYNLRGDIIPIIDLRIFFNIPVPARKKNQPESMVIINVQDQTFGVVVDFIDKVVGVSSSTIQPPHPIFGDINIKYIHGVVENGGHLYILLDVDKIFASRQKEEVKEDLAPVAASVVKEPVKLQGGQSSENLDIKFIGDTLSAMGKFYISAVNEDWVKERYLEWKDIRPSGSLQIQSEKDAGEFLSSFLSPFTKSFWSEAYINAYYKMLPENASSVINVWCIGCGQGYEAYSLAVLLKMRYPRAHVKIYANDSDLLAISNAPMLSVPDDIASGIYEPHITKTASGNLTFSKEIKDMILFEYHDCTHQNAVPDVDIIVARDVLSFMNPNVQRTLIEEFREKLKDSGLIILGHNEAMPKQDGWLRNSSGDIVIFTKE

[2] = molecular target: T1, CheWS; test: isothermal titration calorimetry with purified domain; type: binding; design: gene cheW-1; isolated CheRlike domain (residues 203–444)
Target sequence in this assay (F7IUZ1 entry or part of it): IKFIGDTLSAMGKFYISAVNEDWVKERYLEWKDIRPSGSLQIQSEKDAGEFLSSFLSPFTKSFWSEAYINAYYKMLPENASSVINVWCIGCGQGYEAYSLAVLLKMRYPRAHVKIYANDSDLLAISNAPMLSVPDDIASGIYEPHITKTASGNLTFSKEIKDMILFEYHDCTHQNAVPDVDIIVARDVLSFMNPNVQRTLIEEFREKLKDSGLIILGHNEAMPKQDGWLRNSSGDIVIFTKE

`Nc1ncnc2c1ncn2[C@@H]1O[C@H](CSCC[C@H](N)C(=O)O)[C@@H](O)[C@H]1O` [SAH, S-adenosylhomocysteine] gave a Kd [1] of roughly 17 µM.

`C[S+](CC[C@H](N)C(=O)[O-])C[C@H]1O[C@@H](n2cnc3c(N)ncnc32)[C@H](O)[C@@H]1O` (some centres unmarked) [SAM, S-adenosylmethionine] was tested, and the Kd [2] was roughly 18 µM.
